According to patent US4921871A, “Enolamides, pharmaceutical compositions and methods of use thereof for treating inflammation” (Warner-Lambert Company, priority 1987, dated 1990):

Molecular target: T1, leukotriene receptor (Cavia porcellus, UniProt Q2NNR5)
T1 construct: Two pairs of lungs (1.3 g) from freshly sacrificed 300 g male guinea pigs; tissue Kuiper Rabbit Farm, Gary, Ind; (animals); host or cells: guinea pig lung, crude membranes
T1 sequence (Q2NNR5 1-340): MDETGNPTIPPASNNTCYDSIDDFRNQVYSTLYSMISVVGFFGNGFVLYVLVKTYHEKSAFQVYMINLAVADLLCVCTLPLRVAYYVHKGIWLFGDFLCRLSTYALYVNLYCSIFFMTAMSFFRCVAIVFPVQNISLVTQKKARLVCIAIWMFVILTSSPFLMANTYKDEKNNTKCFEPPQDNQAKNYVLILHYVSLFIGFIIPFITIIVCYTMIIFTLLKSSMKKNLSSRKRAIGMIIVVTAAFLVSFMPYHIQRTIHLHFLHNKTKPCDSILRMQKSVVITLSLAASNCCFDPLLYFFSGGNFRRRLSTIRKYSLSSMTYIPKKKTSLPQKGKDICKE
Experiment: Binding of 3H-Leukotriene D4 to Guinea Pig Lung Membranes (RBL)
Details: 1.00 E -4 M
Description: Additionally, the activity, of the compounds having the Formula I of the present invention is determined by the well known leukotriene receptor binding assay that is described by R. F. Bruns, W. J. Thomsen and T. A. Pugsley in Life Sciences, 33, 645 (1983) or the Herxheimer in vivo antiallergy test described in H. Herxheimer, J. Physiol. (London), Vol. 177, p. 251 (1952).
[14,15-^3 H]leukotriene D4 (^3 H-LTD4) (25 Ci/mmol and 40 Ci/mmol) is purchased from New England Nuclear. Unlabeled LTC4 is a gift of Ono Pharmaceuticals (Japan). LTC4, LTD4, and LTE4 are purchased as methyl esters from Paesel GmbH (Frankfurt, W. Germany). Concentrations of the Paesel leukotrienes are calculated from their absorbance at 280 nm. Leukotriene esters are saponified overnight under N2 in 3.3% potassium carbonate at room temperature. Tritiated leukotrienes are stored as received from New England Nuclear at -20° C. Ono LTC4 (5 μg/ml) is stored at -60° C. in phosphate buffer pH - 6.8. Saponified Paesel leukotrienes are stored at -60° C. in 3.3% potassium carbonate (pH 9.0-9.5). Aliquots of leukotrienes are taken from stock solutions immediately after thawing, after which the stock solutions are immediately refrozen. 2-Amino-2-(hydroxymethyl)-1,3-propanediol (Tris) is Sigma pH 7.7 pre-set crystals, and dimethylsulfoxide is Aldrich Gold Label. Preparation of crude lung membranes
Two pairs of lungs (1.3 g) from freshly sacrificed 300 g male guinea pigs (older animals gave substantially lower binding) from Kuiper Rabbit Farm, Gary, Ind. are disrupted with a Polytron PT 10 (setting 4) for 30 seconds in 20 ml ice-cold 50 mM Tris adjusted with HCl to pH 7.7 at 25° C. (Tris buffer), filtered through a single layer of gauze to remove connective tissue, and centrifuged at 50,000 xg for ten min. The pellet is resuspended by homogenization with a Polytron in 20 ml Tris buffer, centrifuged at 50,000 xg for ten min., resuspended, incubated at 37° C. for 30 minutes, and centrifuged again. The final pellet is resuspended in Tris buffer and either used fresh or stored at -70° C.
All incubations are in triplicate for 60 minutes at 25° C. in 12×75 mm polystyrene tubes containing 1 ml Tris buffer with 20 mg original tissue wet weight of guinea pig lung membranes, 0.2 nM ^3 H-LTD4 (6,000-11,000 cpm), 10 mM MgCl2, and 1% dimethylsulfoxide. Leukotrienes are diluted in Tris buffer. All other test compounds dissolved at 10 mM in dimethylsulfoxide on the same day as the experiment, and diluted in dimethylsulfoxide to 100× the final incubation concentration. Control incubations receive an equal volume (10 μl) of dimethylsulfoxide; the resulting concentration of dimethylsulfoxide had no effect on binding. ^3 H-LTD4 is diluted to 2 nM in Tris buffer. The membrane suspension (20 mg/0.89 ml) contains sufficient MgCl2 to give 10 mM final concentration in the incubation. […] All additions are performed at 0° C. Immediately after the last addition, the incubation is initiated by agitating the rack of tubes on a vortex mixer and warming to 25° C. in a water bath. Tubes are vortexed at least once more during the incubation to ensure that the membranes remained suspended. Incubations are terminated after 60 minutes by filtering under reduced pressure through 25 mm Whatman GF/B filters followed by rapid washing three times with 4 ml of ice-cold Tris buffer. Filters are added to scintillation vials with 8 ml Formula 947 (New England Nuclear), left overnight, shaken, and the radioactivity counted in a scintillation counter (efficiency 40%). Nonspecific binding, defined as binding of ^3 H-LTD4 in the presence of 100 nM LTC4, is 300-500 cpm for all lots of ^3 H-LTD4. Binding to the filters in the absence of tissue is about 100 cpm, and is not affected by unlabeled LTC4. Specific binding, defined as total binding minus nonspecific binding, varied considerably from lot to lot of ^3 H-LTD4. […]

RBL, % Inhibition [%] | SMILES
3.0 | COc1c(C(=O)Nc2ccc(CCc3ccc(Cl)c(Cl)c3)cc2)sc2ccccc12 [Example 147, Benzo[b]thiophene-2-carboxamide, N-[4-[2-(3,4-dichlorophenyl)ethyl]phenyl]-3-methoxy]
11.0 | O=C(Nc1ccc(CCc2ccc(Cl)c(Cl)c2)cc1)C(=O)c1sc2ccccc2c1O [Example 136, Benzo[b]thiophene-2-acetamide, N-[4-[2-(3,4-dichlorophenyl)ethyl]phenyl]-3-hydroxy-α-oxo]
